Experimental data: patent US9873696B2, “Neprilysin inhibitors” (THERAVANCE BIOPHARMA R&D IP, LLC, priority 2010, dated 2018)
pKi: −log10 of the molar value.

Target: T1, human NEP (Homo sapiens, UniProt P08473)
T1 construct: purchased R&D Systems, Minneapolis, Minn; 1182-ZN
Assay: In vitro enzyme inhibition assay at human NEP (Assay 1)
Type: biochemical
Settings: recombinant enzyme, fluorogenic peptide substrate, 37° C.
Method in brief: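 Recombinant enzyme preincubated with compound 30 min at 37 °C, then 10 μM Mca-D-Arg-Arg-Leu-Dap-(Dnp)-OH added in 50 mM HEPES pH 7.5, 100 mM NaCl, 0.01% Tween-20, 10 μM ZnSO4; stopped after 20 min with acetic acid. Fluorescence read at 320/405 nm; Ki from nonlinear fit of v=v0/[1+(I/K′)], reported as pKi.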

T1 sequence (P08473 whole entry): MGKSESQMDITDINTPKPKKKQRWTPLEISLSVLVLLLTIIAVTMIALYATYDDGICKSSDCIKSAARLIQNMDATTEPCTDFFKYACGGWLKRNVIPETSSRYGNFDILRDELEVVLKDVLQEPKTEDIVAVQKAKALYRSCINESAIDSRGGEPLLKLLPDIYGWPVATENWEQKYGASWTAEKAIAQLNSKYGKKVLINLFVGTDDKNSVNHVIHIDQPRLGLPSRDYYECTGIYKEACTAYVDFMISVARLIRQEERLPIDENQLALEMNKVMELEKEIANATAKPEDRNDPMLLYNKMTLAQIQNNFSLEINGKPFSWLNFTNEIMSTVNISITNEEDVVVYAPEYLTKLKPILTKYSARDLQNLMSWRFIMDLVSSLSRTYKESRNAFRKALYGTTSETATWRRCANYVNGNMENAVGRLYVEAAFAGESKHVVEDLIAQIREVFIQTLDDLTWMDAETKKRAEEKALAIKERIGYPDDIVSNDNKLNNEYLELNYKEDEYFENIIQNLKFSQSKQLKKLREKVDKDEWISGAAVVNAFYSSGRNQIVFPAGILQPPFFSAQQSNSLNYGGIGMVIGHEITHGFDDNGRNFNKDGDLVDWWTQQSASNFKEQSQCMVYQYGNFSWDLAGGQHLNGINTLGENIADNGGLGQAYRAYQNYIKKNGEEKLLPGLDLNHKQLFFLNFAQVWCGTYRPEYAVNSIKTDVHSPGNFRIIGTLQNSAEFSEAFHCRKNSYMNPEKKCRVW

Row | SMILES | pKi
1 | COc1ccccc1-c1cc(C(=O)NN(Cc2ccc(-c3cc(Cl)ccc3F)cc2)C[C@@H](O)C(=O)O)[nH]n1 [Example 8-39, (R)-3-{N-(5′-Chloro-2′-fluoro-biphenyl-4-ylmethyl)-N′-[5-(2-methoxy-phenyl)-2H-pyrazole-3-carbonyl]-hydrazino}-2-hydroxy-propionic acid] | ≥ 9.00
2 | O=C(NN(Cc1ccc(-c2cccc(Cl)c2)cc1)C[C@@H](O)C(=O)O)c1nnn[nH]1 [Example 4-5, (R)-3-[N-(3′-Chlorobiphenyl-4-ylmethyl)-N′-(1H-tetrazole-5-carbonyl)-hydrazino]-2-hydroxy-propionic acid] | ≥ 9.00
3 | O=C(NN(Cc1ccc(-c2cccc(Cl)c2)cc1)C[C@H](O)C(=O)O)c1cc(O)no1 [Example 3K, (S)-3-[N-(3′-Chloro-biphenyl-4-ylmethyl)-N′-(3-hydroxyisoxazole-5-carbonyl)-hydrazino]-2-hydrox-propionic Acid] | ≥ 9.00
4 | CN(C)C(=O)c1cc(C(=O)NN(Cc2ccc(-c3cccc(Cl)c3)cc2)C[C@@H](O)C(=O)O)[nH]n1 [Example 4-13, (R)-3-[N-(3′-Chlorobiphenyl-4-ylmethyl)-N′-(5-dimethylcarbamoyl-2H-pyrazole-3-carbonyl)-hydrazino]-2-hydroxy-propionic acid] | ≥ 9.00
5 | NS(=O)(=O)CCNC(=O)c1cc(C(=O)NN(Cc2ccc(-c3ccccc3)cc2)C[C@@H](O)C(=O)O)[nH]n1 [Example 2-3, (R)-3-{N-Biphenyl-4-ylmethyl-N′-[5-(2-sulfamoylethylcarbamoyl)-2H-pyrazole-3-carbonyl]hydrazino}-2-hydroxypropionic acid] | 8.00 to 8.90
6 | O=C(NN(Cc1ccc(-c2cc(Cl)ccc2F)cc1)C[C@@H](O)C(=O)O)c1cc(-c2ccccc2O)n[nH]1 [Example 8-38, (R)-3-{N-(5′-Chloro-2′-fluoro-biphenyl-4-ylmethyl)-N′-[5-(2-hydroxy-phenyl)-2H-pyrazole-3-carbonyl]-hydrazino}-2-hydroxy-propionic acid] | ≥ 9.00
7 | CC(C)CN(C)C(=O)c1cc(C(=O)NN(Cc2ccc(-c3cccc(Cl)c3)cc2)C[C@@H](O)C(=O)O)[nH]n1 [Example 4-16, (R)-3-{N-(3′-Chlorobiphenyl-4-ylmethyl)-N′-[5-(isobutyl-methyl-carbamoyl)-2H-pyrazole-3-carbonyl]-hydrazino}-2-hydroxy-propionic acid] | ≥ 9.00
8 | O=C(NN(Cc1ccc(-c2ccccc2)cc1)C[C@@H](O)C(=O)O)c1cc(C(=O)N2CC=CC2)n[nH]1 [Example 2-13, (R)-3-{N-Biphenyl-4-ylmethyl-N′-[5-(2,5-dihydro-pyrrole-1-carbonyl)-2H-pyrazole-3-carbonyl]hydrazino}-2-hydroxypropionic acid] | 8.00 to 8.90
9 | O=C(NN(Cc1ccc(-c2cc(Cl)ccc2Cl)cc1)C[C@@H](O)C(=O)O)c1nnn[nH]1 [Example 8-60, (R)-3-[N-(2′,5′-Dichloro-biphenyl-4-ylmethyl)-N′-(1H-tetrazole-5-carbonyl)-hydrazino]-2-hydroxy-propionic acid] | ≥ 9.00
10 | O=C(NN(Cc1ccc(-c2cc(Cl)ccc2F)cc1)C[C@@H](O)C(=O)O)c1cc(O)no1 [Example 8-8, (R)-3-[N-(5′-Chloro-2′-fluoro-biphenyl-4-ylmethyl)-N′-(3-hydroxy-isoxazole-5-carbonyl)-hydrazino]-2-hydroxy-propionic acid] | ≥ 9.00
11 | O=C(NN(Cc1ccc(-c2cc(Cl)cc(Cl)c2)cc1)C[C@@H](O)C(=O)O)c1cn(O)nn1 [Example 8-81, (R)-3-[N-(3′,5′-Dichloro-biphenyl-4-ylmethyl)-N′-(1-hydroxy-1H-[1,2,3]triazole-4-carbonyl)-hydrazino]-2-hydroxy-propionic acid] | 7.00 to 7.90
12 | CC(=O)c1cc(C(=O)NN(Cc2ccc(-c3cccc(Cl)c3)cc2)C[C@@H](O)C(=O)O)[nH]n1 [Example 4-25, (R)-3-[N′-(5-Acetyl-2H-pyrazole-3-carbonyl)-N-(3′-chlorobiphenyl-4-ylmethyl)-hydrazino]-2-hydroxy-propionic acid] | ≥ 9.00
